Measured values reported in patent US8008298B2, “Pyrrolopyrazine kinase inhibitors” (Roche Palo Alto, priority 2008, dated 2011).

melting point | Structure (SMILES)
> 300 °C | CC(C)(C)C(=O)c1c[nH]c2ncc(-c3cccc(-c4cn[nH]c4)c3)nc12 [Example I-369, 2,2-Dimethyl-1-{2-[3-(1H-pyrazol-4-yl)-phenyl]-5H-pyrrolo[2,3-b]pyrazin-7-yl}-propan-1-one]
> 300 °C | CC1(C(=O)c2c[nH]c3ncc(-c4cccc(N5CCN(C(=O)C6CCNCC6)CC5)c4)nc23)CCCCC1 [Example 180, (1-Methyl-cyclohexyl)-(2-{3-[4-(piperidine-4-carbonyl)-piperazin-1-yl]-phenyl}-5H-pyrrolo[2,3-b]pyrazin-7-yl)-methanone]
260.9 to 264.4 °C | Cc1nnc(-c2cccc(-c3cnc4[nH]cc(C(=O)C(C)(C)C)c4n3)c2)o1 [Example I-325, 2,2-Dimethyl-1-{2-[3-(5-methyl-[1,3,4]oxadiazol-2-yl)-phenyl]-5H-pyrrolo[2,3-b]pyrazin-7-yl}-propan-1-one]
211 to 213 °C | COc1ccc(-c2cnc3[nH]cc(C(=O)C(C)(C)C)c3n2)cc1N1CCCC1 [Example 101, 1-[2-(4-Methoxy-3-pyrrolidin-1-yl-phenyl)-5H-pyrrolo[2,3-b]pyrazin-7-yl]-2,2-dimethyl-propan-1-one]
240 to 241 °C | COc1cc(-c2cnc3[nH]cc(C(=O)C(C)(C)C)c3n2)cc(OC)c1OC [Example 67, 2,2-Dimethyl-1-[2-(3,4,5-trimethoxy-phenyl)-5H-pyrrolo[2,3-b]pyrazin-7-yl]-propan-1-one]
249 to 250 °C | CC(=O)Nc1cccc(-c2cnc3[nH]cc(C(=O)C(C)(C)C)c3n2)c1 [Example 228, N-{3-[7-(2,2-Dimethyl-propionyl)-5H-pyrrolo[2,3-b]pyrazin-2-yl]-phenyl}-acetamide]
207 to 208 °C | CC(C)(C)C(=O)c1c[nH]c2ncc(-c3ccc(OCCN4CCCCC4)cc3)nc12 [Example I-363, 2,2-Dimethyl-1-{2-[4-(2-piperidin-1-yl-ethoxy)-phenyl]-5H-pyrrolo[2,3-b]pyrazin-7-yl}-propan-1-one]
176 to 178 °C | CC(C)(C)C(=O)c1c[nH]c2ncc(-c3cccc(CN)c3)nc12 [Example 149, 1-[2-(3-Aminomethyl-phenyl)-5H-pyrrolo[2,3-b]pyrazin-7-yl]-2,2-dimethyl-propan-1-one]
233 to 235 °C | CC(C)Oc1cc(-c2cnc3[nH]cc(C(=O)C(C)(C)C)c3n2)cc(N2CCCC2)c1 [Example I-152, 1-[2-(3-Isopropoxy-5-pyrrolidin-1-yl-phenyl)-5H-pyrrolo[2,3-b]pyrazin-7-yl]-2,2-dimethyl-propan-1-one]
238 to 240 °C | COc1cc(-c2cnc3[nH]cc(C(=O)C4(C)CCC(=O)C4)c3n2)cc(OC)c1OC (centres unmarked) [Example 214, 3-Methyl-3-[2-(3,4,5-trimethoxy-phenyl)-5H-pyrrolo[2,3-b]pyrazine-7-carbonyl]-cyclopentanone]
227 to 228 °C | COc1cc(-c2cnc3[nH]cc(C(=O)C(=O)N(C)C)c3n2)cc(OC)c1OC [Example 74, N,N-Dimethyl-2-oxo-2-[2-(3,4,5-trimethoxy-phenyl)-5H-pyrrolo[2,3-b]pyrazin-7-yl]-acetamide]
233 to 234 °C | CC(C)(C)C(=O)c1c[nH]c2ncc(-c3ccc(F)c(Cl)c3)nc12 [Example I-341, 1-[2-(3-Chloro-4-fluoro-phenyl)-5H-pyrrolo[2,3-b]pyrazin-7-yl]-2,2-dimethyl-propan-1-one]
225 to 226 °C | CN1CCN(c2ccc(-c3cnc4[nH]cc(C(=O)C5(C)CCCCC5)c4n3)cc2)CC1 [Example 170, (1-Methyl-cyclohexyl)-{2-[4-(4-methyl-piperazin-1-yl)-phenyl]-5H-pyrrolo[2,3-b]pyrazin-7-yl}-methanone]
180 to 182 °C | CC1(C(=O)c2c[nH]c3ncc(-c4ccc(OCCN5CCCCC5)cc4)nc23)CCCCC1 [Example I-368, (1-Methyl-cyclohexyl)-{2-[4-(2-piperidin-1-yl-ethoxy)-phenyl]-5H-pyrrolo[2,3-b]pyrazin-7-yl}-methanone]
275 to 277 °C | CC(C)(C)C(=O)c1c[nH]c2ncc(-c3ccc(-c4ccccc4)cc3)nc12 [Example I-355, 1-(2-Biphenyl-4-yl-5H-pyrrolo[2,3-b]pyrazin-7-yl)-2,2-dimethyl-propan-1-one]
173 to 175 °C | COc1cccc(-c2cnc3[nH]cc(C(=O)C4(C)CCCCC4)c3n2)c1 [Example 157, [2-(3-Methoxy-phenyl)-5H-pyrrolo[2,3-b]pyrazin-7-yl]-(1-methyl-cyclohexyl)-methanone]
210 to 211.4 °C | COc1cc(-c2cnc3[nH]cc(C(=O)CC(C)C)c3n2)cc(OC)c1OC [Example 63, 3-methyl-1-[2-(3,4,5-trimethoxy-phenyl)-5H-pyrrolo[2,3-b]pyrazin-7-yl]-butan-1-one]
216 to 218 °C | CC1(N)CCN(c2cccc(-c3cnc4[nH]cc(C(=O)C(C)(C)C)c4n3)c2)C1 (centres unmarked) [Example 212, 1-{2-[3-(3-Amino-3-methyl-pyrrolidin-1-yl)-phenyl]-5H-pyrrolo[2,3-b]pyrazin-7-yl}-2,2-dimethyl-propan-1-one]
257 to 258 °C | CNC(=O)c1cccc(-c2cnc3[nH]cc(C(=O)C(C)(C)C)c3n2)c1 [Example I-129, 3-[7-(2,2-Dimethyl-propionyl)-5H-pyrrolo[2,3-b]pyrazin-2-yl]-N-methyl-benzamide]
150 to 152 °C | C[S+]([O-])c1ccc(-c2cnc3[nH]cc(C(=O)C(C)(C)C)c3n2)cc1N1CCCC1 (centres unmarked) [Example 107, 1-[2-(4-Methanesulfinyl-3-pyrrolidin-1-yl-phenyl)-5H-pyrrolo[2,3-b]pyrazin-7-yl]-2,2-dimethyl-propan-1-one]
234.9 to 236.1 °C | Cc1cc(-c2cnc3[nH]cc(C(=O)C(C)(C)C)c3n2)cc(C(C)(C)C)c1 [Example I-334, 1-[2-(3-tert-Butyl-5-methyl-phenyl)-5H-pyrrolo[2,3-b]pyrazin-7-yl]-2,2-dimethyl-propan-1-one]
214 to 216 °C | CC1(C(=O)c2c[nH]c3ncc(-c4cccc(N5CCN(C(=O)CC#N)CC5)c4)nc23)CCCCC1 [Example 178, 3-(4-{3-[7-(1-Methyl-cyclohexanecarbonyl)-5H-pyrrolo[2,3-b]pyrazin-2-yl]-phenyl}-piperazin-1-yl)-3-oxo-propionitrile]
197.4 to 198.8 °C | COc1cccc(-c2cnc3[nH]cc(C(=O)C(C)(C)C)c3n2)c1 [Example I-134, 1-[2-(3-Methoxy-phenyl)-5H-pyrrolo[2,3-b]pyrazin-7-yl]-2,2-dimethyl-propan-1-one]
150 to 151 °C | COc1cc(-c2cnc3[nH]cc(C(=O)CCC(C)OC)c3n2)cc(OC)c1OC (centres unmarked) [Example 129, 4-Methoxy-1-[2-(3,4,5-trimethoxy-phenyl)-5H-pyrrolo[2,3-b]pyrazin-7-yl]-pentan-1-one]
198.2 to 201 °C | CCOC(C)(OCC)C(=O)c1c[nH]c2ncc(-c3cc(OC)c(OC)c(OC)c3)nc12 [Example 72, 2,2-Diethoxy-1-[2-(3,4,5-trimethoxy-phenyl)-5H-pyrrolo[2,3-b]pyrazin-7-yl]-propan-1-one]

Structure (SMILES) | melting point
CC(C)(C)OCc1cccc(-c2cnc3[nH]cc(C(=O)C(C)(C)C)c3n2)c1 [Example I-336, 1-[2-(3-tert-Butoxymethyl-phenyl)-5H-pyrrolo[2,3-b]pyrazin-7-yl]-2,2-dimethyl-propan-1-one] | 202 to 203 °C
